In patent US12263170B2, “Systems and methods for treating cancer” (priority 2015, dated 2025):

Assays:
A549 and H2030 cells = experiment: Cell signaling molecules after AZD1775 alone and with 2Gy ionizing radiation (FIGS. 4A, 4B); assay type: cell-based, human; conditions: AZD1775 alone and in combination with 2Gy of ionizing radiation
Text: Next, referring now to FIGS. 4A and 4B, the investigators examined cell signaling molecules in A549 and H2030 cells, including both rescue and control conditions. The investigators treated with AZD1775 alone and in combination with 2Gy of ionizing radiation.

A549 cell line = experiment: Percent viability with AZD1775, LKB1 rescue vs KDLKB1 transfection (FIG. 2B); assay type: cell-based, human; conditions: A549 cells with rescue copy of LKB1 compared to control KDLKB1 (non-functional kinase)
Experimental: FIG. 2B illustrates, in accordance with embodiments herein, the role of LKB1 in the sensitivity of […] to AZD1775. The A549 cell line was transfected with either a rescue copy of LKB1 (“LKB1”) or a copy of LKB1 with a non-functional kinase domain (“KDLKB1”) that produces non-functional LKB1. […] Next, referring to FIGS. 2A-2C, the LKB1 deficient lines discussed above in reference to FIGS. 1A and 1B were assessed for percent viability in the presence of increasing concentrations of AZD1775. Moreover, as all three cell lines were already LKB1 deficient, the inventors wanted to elucidate the role of LKB1 in the sensitivity of these cells to AZD1775. As such, each cell line with transfected with either a rescue copy of LKB1 (referred to as “LKB1” in these figures) or a copy of LKB1 with a non-functional kinase domain (referred to as KDLKB1 in these figures), which would produce non-functional LKB1.

[1] = system: H2030 cells (KRas mutant and LKB1 deficient); experiment: Viability with AZD1775 combined with cisplatin, pemetrexed or gemcitabine (FIGS. 3A-3C); assay type: cell-based, human; conditions: AZD1775 alone
Experimental: Similar to the previous experiments, H2030 cells (KRas mutant and LKB1 deficient) were transfected with a rescue copy of LKB1 or a version of LKB1 with a non-functional kinase domain that produces non-functional LKB1 protein. Moreover, these different cells were treated with AZD1775 (also referred to as MK1775) in combination with cisplatin (FIG. 3A), pemetrexed (FIG. 3B), or gemcitabine (FIG. 3C).

[2] = system: LKB1 deficient cells (A427, A549, and H2030); experiment: Viability of KRas mutant NSCLC adenocarcinoma cell lines at various concentrations of AZD1775 (FIGS. 1A, 1B); assay type: cell-based, human; conditions: LKB1 deficient cells compared with the other KRas mutant NSCLC cell lines
Text: Referring to FIGS. 1A and 1B, the inventors assessed the impact of various concentrations of a G2/M checkpoint inhibitor (i.e., Wee1 kinase inhibitor-AZD1775) on various cell lines with different genetic backgrounds. All of the cell lines tested in FIGS. 1A and 1B where KRas mutant, some of the cell lines were p53 mutants, and some of the cell lines (i.e., A427, A549, and H2030) were LKB1 deficient. All cell lines were adenocarcinoma from patients with NSCLC.

H2030 cell line = experiment: Percent viability with AZD1775, LKB1 rescue vs KDLKB1 transfection (FIG. 2C); assay type: cell-based, human; conditions: H2030 cells with rescue copy of LKB1 compared to control KDLKB1 (non-functional kinase)
Experimental: FIG. 2C illustrates, in accordance with embodiments herein, the role of LKB1 in the sensitivity of […] to AZD1775. The H2030 cell line was transfected with either a rescue copy of LKB1 (“LKB1”) or a copy of LKB1 with a non-functional kinase domain (“KDLKB1”) that produces non-functional LKB1.
Next, referring to FIGS. 2A-2C, the LKB1 deficient lines discussed above in reference to FIGS. 1A and 1B were assessed for percent viability in the presence of increasing concentrations of AZD1775. Moreover, as all three cell lines were already LKB1 deficient, the inventors wanted to elucidate the role of LKB1 in the sensitivity of these cells to AZD1775. As such, each cell line with transfected with either a rescue copy of LKB1 (referred to as “LKB1” in these figures) or a copy of LKB1 with a non-functional kinase domain (referred to as KDLKB1 in these figures), which would produce non-functional LKB1.

[3] = system: 3381A murine cells (KRas mutant and LKB1 deficient); experiment: Percent viability with AZD1775, LKB1 rescue vs empty vector pBabe (FIG. 2D); assay type: cell-based; conditions: 3381A cells with rescue copy of LKB1 compared to control empty vector (pBabe)
Experimental: Referring now to FIG. 2D, a similar experiment was conducted on murine cells that were KRas mutant and LKB1 deficient (3381A cells).

A427 cell line = experiment: Percent viability with AZD1775, LKB1 rescue vs KDLKB1 transfection (FIG. 2A); assay type: cell-based, human; conditions: A427 cells with rescue copy of LKB1 compared to control KDLKB1 (non-functional kinase)
Experimental: FIG. 2A illustrates, in accordance with embodiments herein, the role of LKB1 in the sensitivity of A427 cells to AZD1775. The A427 cell line was transfected with either a rescue copy of LKB1 (“LKB1”) or a copy of LKB1 with a non-functional kinase domain (“KDLKB1”) that produces non-functional LKB1. […] Next, referring to FIGS. 2A-2C, the LKB1 deficient lines discussed above in reference to FIGS. 1A and 1B were assessed for percent viability in the presence of increasing concentrations of AZD1775. Moreover, as all three cell lines were already LKB1 deficient, the inventors wanted to elucidate the role of LKB1 in the sensitivity of these cells to AZD1775. As such, each cell line with transfected with either a rescue copy of LKB1 (referred to as “LKB1” in these figures) or a copy of LKB1 with a non-functional kinase domain (referred to as KDLKB1 in these figures), which would produce non-functional LKB1.

[4] = system: mutant kras/lkb 1 deficient nsclc tumors in transgenic mice; experiment: Survival of adenoCre-infected KRasG12D/LKB1 FL/FL/luci mice (FIG. 9); assay type: in vivo; conditions: Cisplatin once per week 2.5 mg/kg, with or without AZD1775 30 mg/kg three times per week; treated for four weeks; log-rank analysis
Experimental: Referring to FIG. 9, the investigators transiently infected 6-8 week old KRas^G12D/LKB 1^FL/FL/luci with 5×10^6 P.F.U. of adenoCre via intratracheal inhalation. Mice received scans using the Xenogen IVIS at 8 weeks to identify disease. Mice were then randomized to Cisplatin (once per week, 2.5 mg/kg) or AZD1775 (30 mg/kg, three times per week)+cisplatin and treated for four weeks. Survival was calculated via log-rank analysis. It was observed that the median survival rate of mice receiving Cisplatin was 12 weeks, whereas the median survival rate of mice receiving Cisplatin+AZD1775 was 14 weeks. For this set of experiments, the hazard ratio was 0.3972, while the confidence interval was 0.0605-0.6086.

| EC50 values ([2]; FIG. 1B) | Structure (SMILES) | phosphorylated AMPK (A549 and H2030 cells; LKB1 (rescue) cells) | phosphorylated H2AX (indicator of DNA damage) (A549 and H2030 cells; LKB1-deficient cells) | sensitivity to AZD1775 as measured by percent viability (A549 cell line) | cell viability [1] | viability ([2]; increasing concentrations of AZD1775, FIG. 1A) | sensitivity to AZD1775 as measured by percent viability (H2030 cell line) | sensitivity to AZD1775 as measured by percent viability [3] | sensitivity to AZD1775 as measured by percent viability (A427 cell line) | median survival rate [4] [weeks] |
| --- | --- | --- | --- | --- | --- | --- | --- | --- | --- | --- |
| lowest EC50 values | C=CCn1c(=O)c2cnc(Nc3ccc(N4CCN(C)CC4)cc3)nc2n1-c1cccc(C(C)(C)O)n1 [AZD1775] | increased amounts of phosphorylated AMPK | increased amount of phosphorylated H2AX | less sensitive | negative impact on cell viability | greatest reduced viability | less sensitive | less sensitive | less sensitive | – |
| – | N.N.[Cl][Pt][Cl] [Cisplatin] | – | – | – | – | – | – | – | – | 12 |
